Measurements taken from the CheMixHub viscosity set.

Assay: xn = mol fraction of the nth substance listed

C=C(C)[C@@H]1CC=C(C)CC1 + CCCCCC
298.15 K, 101.33 kPa
Conditions	viscosity [mPa·s]
x2 = 0.0279	0.825
x2 = 0.0568	0.806
x2 = 0.113	0.759
x2 = 0.2079	0.686
x2 = 0.2991	0.622
x2 = 0.4219	0.549
x2 = 0.5543	0.477
x2 = 0.6701	0.421
x2 = 0.7542	0.386
x2 = 0.8966	0.334
x2 = 0.9273	0.326
x2 = 0.972	0.305

O=C1CCCCC1 + CCCCCC
viscosity [mPa·s]
Conditions	298.15 K	303.15 K	308.15 K
101 kPa, x1 = 0.0863	0.364	–	–
101 kPa, x1 = 0.2109	0.421	–	–
101 kPa, x1 = 0.3038	0.474	–	–
101 kPa, x1 = 0.4007	0.542	–	–
101 kPa, x1 = 0.463	0.598	–	–
101 kPa, x1 = 0.6023	0.773	–	–
101 kPa, x1 = 0.6701	0.833	–	–
101 kPa, x1 = 0.7991	1.185	–	–
101 kPa, x1 = 0.872	1.398	–	–
101.33 kPa, x1 = 0.1011	0.335	0.318	0.305
101.33 kPa, x1 = 0.2012	0.381	0.361	0.343
101.33 kPa, x1 = 0.3052	0.445	0.418	0.396
101.33 kPa, x1 = 0.4029	0.514	0.483	0.458
101.33 kPa, x1 = 0.5011	0.607	0.57	0.537
101.33 kPa, x1 = 0.6043	0.732	0.684	0.641
101.33 kPa, x1 = 0.7032	0.898	0.834	0.779
101.33 kPa, x1 = 0.8003	1.131	1.033	0.961
101.33 kPa, x1 = 0.8989	1.441	1.322	1.22

CC(=O)CC(C)C + CCCCCCC
298.15 K, 101 kPa
Conditions	viscosity [mPa·s]
x1 = 0.1142	0.39
x1 = 0.2052	0.397
x1 = 0.3088	0.407
x1 = 0.4417	0.424
x1 = 0.5341	0.438
x1 = 0.6443	0.458
x1 = 0.7444	0.478
x1 = 0.8854	0.511

CC(C)CC(C)(C)C + CCCCCCC
101 kPa
Conditions	viscosity [mPa·s]
293.15 K, x1 = 0.6	0.454
293.15 K, x1 = 0.8	0.473
298.15 K, x1 = 0.1802	0.4055
298.15 K, x1 = 0.2943	0.4133
298.15 K, x1 = 0.3739	0.4193
298.15 K, x1 = 0.4883	0.4269
298.15 K, x1 = 0.5806	0.4357
298.15 K, x1 = 0.6254	0.4399
298.15 K, x1 = 0.7244	0.4491
298.15 K, x1 = 0.799	0.4562
298.15 K, x1 = 0.8649	0.461
298.15 K, x1 = 0.9217	0.4665
298.15 K, x1 = 0.9641	0.4743
313.15 K, x1 = 0.2	0.343
313.15 K, x1 = 0.4	0.354
313.15 K, x1 = 0.6	0.366
313.15 K, x1 = 0.8	0.38

CCCCCCO + CCCCCCC
viscosity [mPa·s], 101.33 kPa
Conditions	x1 = 0.0567	x1 = 0.1134	x1 = 0.2217	x1 = 0.3279	x1 = 0.4307	x1 = 0.5294	x1 = 0.6292	x1 = 0.7248	x1 = 0.8643	x1 = 0.9526
298.15 K	0.4405	0.4541	0.5473	0.6831	0.8745	1.142	1.523	2.047	2.93	3.788
308.15 K	0.396	0.4021	0.4788	0.5863	0.7378	0.9541	1.201	1.574	2.299	2.921

O=C1CCCCC1 + CCCCCCC
viscosity [mPa·s]
Conditions	298.15 K	303.15 K	308.15 K
101 kPa, x1 = 0.1125	0.437	–	–
101 kPa, x1 = 0.2097	0.484	–	–
101 kPa, x1 = 0.3055	0.539	–	–
101 kPa, x1 = 0.4144	0.616	–	–
101 kPa, x1 = 0.5033	0.702	–	–
101 kPa, x1 = 0.5928	0.803	–	–
101 kPa, x1 = 0.7027	0.97	–	–
101 kPa, x1 = 0.8091	1.184	–	–
101 kPa, x1 = 0.8686	1.34	–	–
101.33 kPa, x1 = 0.1046	0.427	0.403	0.384
101.33 kPa, x1 = 0.2024	0.472	0.445	0.421
101.33 kPa, x1 = 0.3035	0.529	0.497	0.47
101.33 kPa, x1 = 0.4016	0.606	0.564	0.53
101.33 kPa, x1 = 0.5025	0.69	0.644	0.605
101.33 kPa, x1 = 0.5993	0.805	0.75	0.701
101.33 kPa, x1 = 0.7026	0.96	0.893	0.828
101.33 kPa, x1 = 0.8009	1.178	1.085	1.004
101.33 kPa, x1 = 0.9009	1.474	1.349	1.235

CC(C)CC(C)(C)C + CCCCCCCC
viscosity [mPa·s]
Conditions	x1 = 0.2	x1 = 0.4	x1 = 0.5	x1 = 0.6	x1 = 0.8
293.15 K, 101 kPa	0.528	0.519	–	0.51	0.503
298.2 K, 100 kPa	–	–	0.4882	–	–
313.15 K, 101 kPa	0.421	0.415	–	0.408	0.403

CCCCCCO + CCCCCCCC
viscosity [mPa·s]
Conditions	293.15 K	298.15 K	303.15 K	308.15 K	313.15 K
100 kPa, x2 = 0.0423	4.68	4.014	3.464	3.004	2.618
100 kPa, x2 = 0.0824	4.117	3.546	3.072	2.675	2.34
100 kPa, x2 = 0.1636	3.198	2.775	2.423	2.126	1.876
100 kPa, x2 = 0.2691	2.319	2.037	1.8	1.599	1.426
100 kPa, x2 = 0.3407	1.877	1.663	1.482	1.327	1.193
100 kPa, x2 = 0.3897	1.634	1.457	1.306	1.176	1.064
100 kPa, x2 = 0.4731	1.303	1.176	1.065	0.969	0.884
100 kPa, x2 = 0.5241	1.148	1.043	0.95	0.869	0.797
100 kPa, x2 = 0.5779	1.011	0.925	0.848	0.779	0.718
100 kPa, x2 = 0.6611	0.851	0.785	0.725	0.671	0.622
100 kPa, x2 = 0.753	0.719	0.667	0.62	0.577	0.537
100 kPa, x2 = 0.8903	0.582	0.543	0.508	0.475	0.445
100 kPa, x2 = 0.9572	0.533	0.502	0.468	0.438	0.411
100 kPa, x2 = 0.9715	0.524	0.491	0.461	0.432	0.406
101.33 kPa, x2 = 0.051	–	4.054	–	–	–
101.33 kPa, x2 = 0.1118	–	3.29	–	–	–
101.33 kPa, x2 = 0.1835	–	2.593	–	–	–
101.33 kPa, x2 = 0.3569	–	1.552	–	–	–
101.33 kPa, x2 = 0.5094	–	1.074	–	–	–
101.33 kPa, x2 = 0.5642	–	0.955	–	–	–
101.33 kPa, x2 = 0.6167	–	0.857	–	–	–
101.33 kPa, x2 = 0.6701	–	0.77	–	–	–
101.33 kPa, x2 = 0.7288	–	0.686	–	–	–
101.33 kPa, x2 = 0.8387	–	0.566	–	–	–
101.33 kPa, x2 = 0.937	–	0.511	–	–	–

O=C1CCCCC1 + CCCCCCCC
viscosity [mPa·s]
Conditions	298.15 K	303.15 K	308.15 K
101 kPa, x2 = 0.0833	1.59	–	–
101 kPa, x2 = 0.1727	1.31	–	–
101 kPa, x2 = 0.3177	1.023	–	–
101 kPa, x2 = 0.4682	0.829	–	–
101 kPa, x2 = 0.6244	0.693	–	–
101 kPa, x2 = 0.7825	0.602	–	–
101 kPa, x2 = 0.8935	0.55	–	–
101.33 kPa, x1 = 0.0981	0.537	0.505	0.479
101.33 kPa, x1 = 0.2053	0.583	0.547	0.516
101.33 kPa, x1 = 0.3022	0.635	0.595	0.559
101.33 kPa, x1 = 0.4042	0.706	0.658	0.618
101.33 kPa, x1 = 0.5032	0.787	0.733	0.686
101.33 kPa, x1 = 0.603	0.895	0.831	0.774
101.33 kPa, x1 = 0.7025	1.039	0.96	0.894
101.33 kPa, x1 = 0.8021	1.264	1.165	1.054
101.33 kPa, x1 = 0.8984	1.508	1.38	1.271
